The record followed here is paper PMC4490227, “Identification of Glycyrrhiza as the rikkunshito constituent with the highest antagonistic potential on heterologously expressed 5-HT3A receptors due to the action of flavonoids” (Frontiers in Pharmacology, 2015).

In this assay the target is T1, human 5-HT3A receptors (Homo sapiens, UniProt P46098).
T1 sequence (P46098 24-478): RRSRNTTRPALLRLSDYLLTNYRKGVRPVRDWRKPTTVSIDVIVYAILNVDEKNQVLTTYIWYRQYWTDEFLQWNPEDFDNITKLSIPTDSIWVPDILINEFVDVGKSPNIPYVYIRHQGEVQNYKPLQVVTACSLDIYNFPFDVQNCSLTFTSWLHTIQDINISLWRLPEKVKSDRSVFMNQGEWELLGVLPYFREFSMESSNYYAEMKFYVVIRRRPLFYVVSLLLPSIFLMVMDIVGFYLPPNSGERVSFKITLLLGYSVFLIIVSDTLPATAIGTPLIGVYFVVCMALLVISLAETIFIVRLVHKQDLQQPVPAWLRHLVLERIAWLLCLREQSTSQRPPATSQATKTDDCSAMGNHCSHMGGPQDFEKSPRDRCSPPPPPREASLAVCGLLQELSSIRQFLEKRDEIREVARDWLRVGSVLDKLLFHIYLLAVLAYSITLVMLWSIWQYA
Briefly: Two-electrode voltage-clamp: modulation of 5-HT-induced currents at 5-HT3A receptors heterologously expressed in Xenopus laevis oocytes. Conditions: for synergistic effects between different herbal 5-HT3A receptor antagonists: pairs: 6-gingerol and citronellol, hesperetin and 6-shogaol (Supplementary Figure 3); for IC50: read-out: IC50 of substances; for inhibition of the 5-HT3A receptor response by solvent: solvent 1.0 Vol.-%. On the set-up: key to mode of antagonism: c, apparently competitive; nc, non-competitive. It is filed as cell-based. As for the experimental part: The expression plasmid contains the cDNA coding for the 5-HT3A protein in pcDNA3 (Invitrogen) (Lobitz et al., [2001]). cRNAs were prepared using the AmpliCap T7 high-yield message marker kit (Epicenter, Madison, WI, USA), following the manufacturer's protocol. Xenopus laevis oocytes were obtained as previously described (Sherkheli et al., [2010]) and injected with a total amount of 7–20 ng of the receptor-coding cRNA using an injection-setup from WPI (Nanoliter 2000, Micro4). The injected oocytes were stored in ND 96 (96.0 mM NaCl, 2.0 mM KCl, 1.8 mM CaCl2, 1.0 mM MgCl2, 5.0 mM HEPES, pH 7.2, 200 U/ml penicillin, and 200 μg/ml streptomycin) at 17°C. Measurements were performed one to 5 days after cRNA injection.
The electrophysiological recordings were performed using the two-electrode voltage-clamp technique as previously described (Saras et al., [2008]). All of the measurements were performed in normal frog ringer (NFR) [115 mM NaCl, 2.5 mM KCl, 1.8 mM CaCl2, 10 mM HEPES; pH 7.2 (NaOH/HCl)] containing niflumic acid (NA) (100 μM) to block the Ca^2+-induced currents mediated by the intrinsic chloride channel (TMEM16A) or under Ca^2+-free conditions [115 mM NaCl, 2.5 mM KCl, 1.8 mM MgCl2, 10 mM HEPES; pH 7.2 (NaOH/HCl)]. All of the substances were applied after preincubation (30 s). The currents were recorded at a holding potential of typically −60 mV using the Cell Works 6.1.1. software (NPI).
As a control, we tested the competitive antagonists ondansetron (1 nM) and d-tubocurarine (20 μM) (Hope et al., [1996]) and the non-competitive antagonist picrotoxin (50 μM) (Das and Dillon, [2005]). […] Nevertheless, a definitive differentiation between competitive, allosteric, and concentration-dependent antagonists must be performed using ligand binding assays.
The concentration-response data were fitted with the Hill equation with variable slope using SigmaPlot 8.0 (SPSS). Thereby, the calculation of the EC50 and IC50-values was done. The deviations are represented by the standard error of the mean (SEM). The datasets were tested for statistically significant differences through Student's t-test using Excel 2010 (Microsoft) (^*p < 0.05; ^**p < 0.005; ^***p < 0.0005). For multiple comparisons, the significance levels were corrected via Bonferroni-correction.

The mark [1] stands for this setting: from comparison of inhibition at 2.5 and 30 μM 5-HT.
The mark [2] stands for this setting: inhibition at 2.5 vs 30 μM 5-HT.
Setting [3] is: read-out: Mean inhibition ± SEM [%] 5-HT [2.5 μM].
[4] abbreviates: read-out: Mean inhibition ± SEM [%] 5-HT [30 μM].
[5] abbreviates: substance 1 mM (Figure 2A), read-out: 5-HT3A receptor inhibition by the substances (screening).

Read-outs that look alike come from different tables or passages of the source.

Consider `CCCCC[C@H](O)CC(=O)CCc1ccc(O)c(OC)c1` [6-gingerol], for which the “synergistic effects between different herbal 5-HT3A receptor antagonists” value is listed as “synergistic”.

With `CCCCC/C=C/C(=O)CCc1ccc(O)c(OC)c1` [6-shogaol], the “synergistic effects between different herbal 5-HT3A receptor antagonists” value was “synergistic”.

Regarding `O=C1C[C@@H](c2ccc(O)cc2)Oc2cc(O)ccc21` [(-)-liquiritigenin], the IC50 came to 210 ± 25 µM. In addition, the mode of antagonism entry under setting [1] is “^*/nc”. In addition, the “mode of antagonism” value under setting [2] is reported as “non-competitive”. The inhibition at 500 µM under setting [3] was found to be 84.5 ± 2.4%. The inhibition at 500 µM under setting [4] is 93.5 ± 0.5%. Moreover, the inhibition at 1000 µM under setting [5] is 92.8 ± 2.2%.

On to `C=C1CCC[C@]2(C)C[C@]3(O)OC(=O)C(C)=C3C[C@@H]12` [Atractylenolide III, atractylenolide III], for which the IC50 turned out to be 1320 ± 145 µM. In addition, the mode of antagonism result under setting [1] is recorded as “ns/nc”. In addition, under setting [3], the inhibition at 1000 µM amounted to 55 ± 6.2%. In addition, the inhibition at 1000 µM under setting [4] was found to be 57.8 ± 6%.

On to `COc1cc2c3cc1Oc1cc(ccc1O)C[C@@H]1c4c(cc(OC)c(O)c4Oc4ccc(cc4)C[C@@H]3N(C)CC2)CC[N+]1(C)C` [D-tubocurarine, d-tubocurarine, reference compound], for which the mode of antagonism result under setting [1] is recorded as “^**/c”. Also, the inhibition at 20 µM under setting [3] was 82 ± 3.5% and the inhibition at 20 µM under setting [4] came to 45.9 ± 4.8%.

Take `C[S+](C)[O-]` [DMSO, dimethyl sulfoxide]: the “inhibition of the 5-HT3A receptor response by solvent” value was found to be 29.1 ± 4.7%.

For `CCO` [Ethanol, ethanol], the “inhibition of the 5-HT3A receptor response by solvent” value was 14.1 ± 2.6%.

Consider `CC1(C)C=Cc2c(ccc3c2OC[C@@H](c2ccc(O)cc2O)C3)O1` [Glabridin, glabridin], for which the concentration for half-maximal inhibition (IC50) is 28 ± 2.8 µM. In addition, the mode of antagonism result under setting [1] is listed as “^***/c”. Also, the “mode of antagonism” value under setting [2] is “apparent competitive antagonism”. The inhibition at 100 µM under setting [3] came to 64.7 ± 2.1%. For the same compound, under setting [4], the inhibition at 100 µM is 17.3 ± 2.3%. Also, the inhibition at 100 µM (substance 100 μM (Figure 2A), read-out: 5-HT3A receptor inhibition by the substances (screening)) is 62.8 ± 2.1%.

Take `CC1(C)[C@@H](O[C@H]2O[C@H](C(=O)O)[C@@H](O)[C@H](O)[C@H]2O[C@@H]2O[C@H](C(=O)O)[C@@H](O)[C@H](O)[C@H]2O)CC[C@]2(C)[C@H]3C(=O)C=C4[C@@H]5C[C@@](C)(C(=O)O)CC[C@]5(C)CC[C@@]4(C)[C@]3(C)CC[C@@H]12` [Glycyrrhizin, glycyrrhizin]: the inhibition at 1000 µM under setting [5] is -3.1 ± 4.3%.

Take `COc1ccc([C@@H]2CC(=O)c3c(O)cc(O)cc3O2)cc1O` [Hesperetin, hesperetin]: the “synergistic effects between different herbal 5-HT3A receptor antagonists” value is “synergistic” and the IC50 was found to be 218 ± 38 µM. Moreover, the mode of antagonism result under setting [1] is on record as “ns/nc”. Besides, the inhibition at 1000 µM under setting [3] was determined as 77.3 ± 9%. Also, the inhibition at 1000 µM under setting [4] came to 79.7 ± 6.1%. For the same compound, the “5-HT3A receptor inhibition by the substances (screening)” value (“5-HT3A receptor inhibition” for short) (substance 1 mM (Figure 2A)) is “antagonistic effects”. In addition, the inhibition at 1000 µM under setting [5] was 66.6 ± 9.3%.

`COc1ccc([C@@H]2CC(=O)c3c(O)cc(O[C@@H]4O[C@H](CO[C@@H]5O[C@@H](C)[C@H](O)[C@@H](O)[C@H]5O)[C@@H](O)[C@H](O)[C@H]4O)cc3O2)cc1O` [Hesperidin, hesperidin]: the “5-HT3A receptor inhibition” value runs as follows: (substance 1 mM (Figure 2A)) “no effect”; (substance 1 mM (Figure 2A), listed as hesperidin) −2.6 ± 5.3%.

Consider `C=CC(C)(C)c1cc(/C=C/C(=O)c2ccc(O)cc2)c(OC)cc1O` [Licochalcone A, licochalcone A], for which the “direct activation of 5-HT3A receptors” value was “absence of the direct activation” and the half-maximal inhibitory concentration (IC50) was determined as 14.4 ± 1.3 µM. Further, the residual current remaining entry (5 μM 5-HT) is on record as “approximately 40%”. Besides, the mode of antagonism result under setting [1] was “^*/c”. Besides, under setting [2], the “mode of antagonism” value is “apparent competitive antagonism”. Under setting [3], the inhibition at 1000 µM is 76.1 ± 6.1%. For the same compound, the inhibition at 1000 µM under setting [4] amounted to 58.7 ± 2.6%. The inhibition at 1000 µM under setting [5] came to 70.6 ± 3.1%.

As for `Cc1nccn1CC1CCc2c(c3ccccc3n2C)C1=O` (centres unmarked) [Ondansetron, ondansetron, reference compound], the mode of antagonism entry under setting [1] is reported as “^*/c”. Also, the inhibition at 0.001 µM runs as follows: under setting [3], 82.4 ± 3.4%; under setting [4], 57.9 ± 5.3%.

With `CC(C)=CCCC(C)CCO` (centres unmarked) [citronellol], the “synergistic effects between different herbal 5-HT3A receptor antagonists” value is reported as “synergistic”.

For `C[C@@H]1O[C@@H](OC[C@H]2O[C@@H](Oc3c(-c4ccc(O)c(O)c4)oc4cc(O)cc(O)c4c3=O)[C@H](O)[C@@H](O)[C@@H]2O)[C@H](O)[C@H](O)[C@H]1O` [rutin], the “5-HT3A receptor inhibition” value (substance 1 mM (Figure 2A)) is reported as “antagonistic effects”. Besides, under setting [5], the inhibition at 1000 µM came out at 57 ± 6.1%.

On to picrotoxin [reference compound], for which the mode of antagonism entry under setting [1] is reported as “ns/nc”. Besides, the “Mean inhibition ± SEM [%] 5-HT [2.5 μM]” value (substance 50 μM, 5-HT 2.5 μM, 30 s preincubation) came out at 72.5 ± 3.7%. For the same compound, for the setting “substance 50 μM, 5-HT 30 μM, 30 s preincubation”, the “Mean inhibition ± SEM [%] 5-HT [30 μM]” value is 73.0 ± 2.8%.
